One assay deals with Collagenase 3 (Homo sapiens, UniProt P45452). Description: Inhibitory concentration against MMP-13.
The target in assay [1] is 72 kDa type IV collagenase (Homo sapiens, UniProt P08253). Nature of the assay: Inhibitory concentration against MMP-2.
The species entered for another assay is Homo sapiens. Nature of the assay: Ratio of the inhibitory concentration against MMP-2 to that of MMP-13.
Assay [2] addresses T1, A disintegrin and metalloproteinase with thrombospondin motifs 4 (Homo sapiens, UniProt O75173).
T1 sequence (O75173 whole entry): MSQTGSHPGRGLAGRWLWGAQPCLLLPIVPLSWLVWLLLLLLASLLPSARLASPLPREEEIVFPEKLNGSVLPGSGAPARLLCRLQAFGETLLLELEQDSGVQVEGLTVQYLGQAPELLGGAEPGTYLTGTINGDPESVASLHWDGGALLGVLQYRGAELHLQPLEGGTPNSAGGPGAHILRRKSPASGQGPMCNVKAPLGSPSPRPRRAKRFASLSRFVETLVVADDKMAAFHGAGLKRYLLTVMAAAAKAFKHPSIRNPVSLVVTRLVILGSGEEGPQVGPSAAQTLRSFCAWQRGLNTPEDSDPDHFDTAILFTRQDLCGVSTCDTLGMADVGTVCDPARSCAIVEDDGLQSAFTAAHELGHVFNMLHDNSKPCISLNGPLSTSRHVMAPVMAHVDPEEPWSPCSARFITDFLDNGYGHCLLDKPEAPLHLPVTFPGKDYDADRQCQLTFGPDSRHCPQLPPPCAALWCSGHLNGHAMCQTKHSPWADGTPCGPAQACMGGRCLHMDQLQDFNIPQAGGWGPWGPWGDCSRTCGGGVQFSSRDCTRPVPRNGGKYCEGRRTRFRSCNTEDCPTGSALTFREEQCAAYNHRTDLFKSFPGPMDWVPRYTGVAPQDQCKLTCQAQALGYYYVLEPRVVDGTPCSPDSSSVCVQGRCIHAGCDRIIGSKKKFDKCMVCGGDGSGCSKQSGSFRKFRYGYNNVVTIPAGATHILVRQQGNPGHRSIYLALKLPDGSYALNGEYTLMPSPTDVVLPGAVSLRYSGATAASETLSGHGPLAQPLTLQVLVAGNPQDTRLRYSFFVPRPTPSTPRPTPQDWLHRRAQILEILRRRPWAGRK
Nature of the assay: Inhibitory concentration against Aggrecanase 1.

Assay [3] addresses T2, Disintegrin and metalloproteinase domain-containing protein 17 (Homo sapiens, UniProt P78536). Nature of the assay: Percent inhibition at 25 uM against TACE.
Assay [4] addresses Matrix metalloproteinase-9 (Homo sapiens) (UniProt P14780). Description: Percent inhibition at 25 uM against MMP-9.
The target of a further assay is T3, Interstitial collagenase (Homo sapiens, UniProt P03956).
T3 sequence (P03956 whole entry): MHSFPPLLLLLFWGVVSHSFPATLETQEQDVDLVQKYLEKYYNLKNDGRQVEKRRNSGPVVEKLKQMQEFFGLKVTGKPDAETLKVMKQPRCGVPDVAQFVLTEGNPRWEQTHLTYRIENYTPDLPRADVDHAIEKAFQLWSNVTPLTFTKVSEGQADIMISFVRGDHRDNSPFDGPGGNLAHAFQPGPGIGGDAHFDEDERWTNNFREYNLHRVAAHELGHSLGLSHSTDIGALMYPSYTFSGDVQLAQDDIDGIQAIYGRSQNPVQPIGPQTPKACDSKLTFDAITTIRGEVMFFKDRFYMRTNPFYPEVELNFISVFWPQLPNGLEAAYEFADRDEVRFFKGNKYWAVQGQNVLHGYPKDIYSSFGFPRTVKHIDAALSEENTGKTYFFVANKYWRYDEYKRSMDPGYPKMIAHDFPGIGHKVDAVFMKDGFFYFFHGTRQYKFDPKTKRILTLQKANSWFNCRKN
Description: Inhibitory concentration against MMP-1.

The target in another assay is Stromelysin-1 (Homo sapiens, UniProt P08254). Nature of the assay: Inhibitory concentration against MMP-3.
Another assay deals with T4, Matrilysin (Homo sapiens, UniProt P09237).
T4 sequence (P09237 whole entry): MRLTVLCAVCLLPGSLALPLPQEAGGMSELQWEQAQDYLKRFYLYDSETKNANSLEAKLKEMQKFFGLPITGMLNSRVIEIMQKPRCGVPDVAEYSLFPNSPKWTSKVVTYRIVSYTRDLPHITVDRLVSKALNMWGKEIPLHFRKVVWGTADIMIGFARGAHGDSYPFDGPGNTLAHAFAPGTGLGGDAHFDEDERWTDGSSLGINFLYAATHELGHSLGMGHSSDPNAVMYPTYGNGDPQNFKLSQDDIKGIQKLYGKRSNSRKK
Nature of the assay: Inhibitory concentration against MMP-7.

For another assay, the target named is Neutrophil collagenase (Homo sapiens, UniProt P22894). Nature of the assay: Inhibitory concentration against MMP-8.
The target of assay [5] is Matrix metalloproteinase-14 (Homo sapiens, UniProt P50281).
Description: Inhibitory concentration against MMP-14
Assay [6] concerns the target T2, Disintegrin and metalloproteinase domain-containing protein 17. Description: Inhibitory concentration against TACE.

The structures appear in SMILES notation. pIC50: −log10 of the molar value.

Chain of 72 kDa type IV collagenase (P08253 whole entry): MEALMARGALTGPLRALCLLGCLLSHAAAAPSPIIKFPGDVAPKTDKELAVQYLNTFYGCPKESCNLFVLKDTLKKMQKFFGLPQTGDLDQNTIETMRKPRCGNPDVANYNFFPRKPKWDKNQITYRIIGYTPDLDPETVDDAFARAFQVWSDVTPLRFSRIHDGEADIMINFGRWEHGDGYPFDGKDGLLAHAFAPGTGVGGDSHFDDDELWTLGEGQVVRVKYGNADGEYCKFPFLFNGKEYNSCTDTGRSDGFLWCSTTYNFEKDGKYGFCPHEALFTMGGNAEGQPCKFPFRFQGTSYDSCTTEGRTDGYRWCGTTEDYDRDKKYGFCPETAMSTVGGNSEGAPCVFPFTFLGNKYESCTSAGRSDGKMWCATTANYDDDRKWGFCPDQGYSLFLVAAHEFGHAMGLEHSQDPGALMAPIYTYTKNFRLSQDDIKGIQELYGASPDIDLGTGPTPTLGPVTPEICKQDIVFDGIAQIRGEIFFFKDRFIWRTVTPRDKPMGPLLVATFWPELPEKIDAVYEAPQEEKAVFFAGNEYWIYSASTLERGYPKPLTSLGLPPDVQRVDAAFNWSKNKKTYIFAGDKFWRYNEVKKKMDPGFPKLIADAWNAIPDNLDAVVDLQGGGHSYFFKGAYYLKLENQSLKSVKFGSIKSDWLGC
Chain of Matrix metalloproteinase-9 (Homo sapiens) (P14780 whole entry): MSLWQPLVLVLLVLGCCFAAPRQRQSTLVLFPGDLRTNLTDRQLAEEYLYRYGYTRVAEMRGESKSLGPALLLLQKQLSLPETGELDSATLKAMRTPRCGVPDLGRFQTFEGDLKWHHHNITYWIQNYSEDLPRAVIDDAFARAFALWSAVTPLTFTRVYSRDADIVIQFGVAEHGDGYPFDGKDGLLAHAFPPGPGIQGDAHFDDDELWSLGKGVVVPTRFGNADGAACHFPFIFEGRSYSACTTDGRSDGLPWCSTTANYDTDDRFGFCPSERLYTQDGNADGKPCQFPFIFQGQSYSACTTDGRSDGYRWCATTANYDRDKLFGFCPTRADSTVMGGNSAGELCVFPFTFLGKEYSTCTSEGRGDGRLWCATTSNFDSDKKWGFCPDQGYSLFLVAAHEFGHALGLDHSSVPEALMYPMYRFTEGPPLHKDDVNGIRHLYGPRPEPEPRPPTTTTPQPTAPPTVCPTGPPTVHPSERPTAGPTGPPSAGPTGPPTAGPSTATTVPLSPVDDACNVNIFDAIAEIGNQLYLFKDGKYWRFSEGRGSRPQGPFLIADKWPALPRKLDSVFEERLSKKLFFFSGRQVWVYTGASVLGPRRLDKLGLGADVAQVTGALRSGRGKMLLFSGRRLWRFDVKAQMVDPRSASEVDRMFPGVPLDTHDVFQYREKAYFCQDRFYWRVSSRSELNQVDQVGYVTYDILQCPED
Chain of Neutrophil collagenase (P22894 whole entry): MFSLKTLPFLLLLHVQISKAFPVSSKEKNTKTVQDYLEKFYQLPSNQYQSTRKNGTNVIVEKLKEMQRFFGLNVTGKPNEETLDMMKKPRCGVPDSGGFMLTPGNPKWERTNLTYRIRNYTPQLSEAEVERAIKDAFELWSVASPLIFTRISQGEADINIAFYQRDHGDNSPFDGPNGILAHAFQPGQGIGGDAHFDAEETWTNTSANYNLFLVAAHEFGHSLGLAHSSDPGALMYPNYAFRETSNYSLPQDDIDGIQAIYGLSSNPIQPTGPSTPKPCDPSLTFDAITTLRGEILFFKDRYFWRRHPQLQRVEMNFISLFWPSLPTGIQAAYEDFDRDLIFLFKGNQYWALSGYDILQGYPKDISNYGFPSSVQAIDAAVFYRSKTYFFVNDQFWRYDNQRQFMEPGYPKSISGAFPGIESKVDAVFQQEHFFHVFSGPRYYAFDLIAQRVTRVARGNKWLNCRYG
T2 sequence (P78536 whole entry, the tested form may be a part): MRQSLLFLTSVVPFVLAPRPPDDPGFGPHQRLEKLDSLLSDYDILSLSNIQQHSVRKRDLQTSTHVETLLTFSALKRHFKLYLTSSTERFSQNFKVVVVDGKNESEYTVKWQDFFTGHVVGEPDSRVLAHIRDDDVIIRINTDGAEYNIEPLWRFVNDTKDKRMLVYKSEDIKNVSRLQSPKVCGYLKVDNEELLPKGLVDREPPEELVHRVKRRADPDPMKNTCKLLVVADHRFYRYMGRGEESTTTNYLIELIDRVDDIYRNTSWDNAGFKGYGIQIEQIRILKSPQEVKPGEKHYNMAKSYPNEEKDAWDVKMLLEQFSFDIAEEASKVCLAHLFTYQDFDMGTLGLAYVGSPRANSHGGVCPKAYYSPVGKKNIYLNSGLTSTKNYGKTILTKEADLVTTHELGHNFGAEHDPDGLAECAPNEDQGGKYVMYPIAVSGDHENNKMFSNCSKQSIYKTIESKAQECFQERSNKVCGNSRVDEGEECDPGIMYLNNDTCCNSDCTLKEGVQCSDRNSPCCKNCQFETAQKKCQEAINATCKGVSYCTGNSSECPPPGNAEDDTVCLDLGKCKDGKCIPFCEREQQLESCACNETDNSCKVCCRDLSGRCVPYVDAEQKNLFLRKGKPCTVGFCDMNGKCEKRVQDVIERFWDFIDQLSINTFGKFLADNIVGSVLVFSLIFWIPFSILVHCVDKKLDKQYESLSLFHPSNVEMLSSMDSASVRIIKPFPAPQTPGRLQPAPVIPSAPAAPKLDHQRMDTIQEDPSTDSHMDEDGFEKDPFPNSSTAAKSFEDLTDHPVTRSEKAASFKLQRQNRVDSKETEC
Chain of Stromelysin-1 (P08254 whole entry): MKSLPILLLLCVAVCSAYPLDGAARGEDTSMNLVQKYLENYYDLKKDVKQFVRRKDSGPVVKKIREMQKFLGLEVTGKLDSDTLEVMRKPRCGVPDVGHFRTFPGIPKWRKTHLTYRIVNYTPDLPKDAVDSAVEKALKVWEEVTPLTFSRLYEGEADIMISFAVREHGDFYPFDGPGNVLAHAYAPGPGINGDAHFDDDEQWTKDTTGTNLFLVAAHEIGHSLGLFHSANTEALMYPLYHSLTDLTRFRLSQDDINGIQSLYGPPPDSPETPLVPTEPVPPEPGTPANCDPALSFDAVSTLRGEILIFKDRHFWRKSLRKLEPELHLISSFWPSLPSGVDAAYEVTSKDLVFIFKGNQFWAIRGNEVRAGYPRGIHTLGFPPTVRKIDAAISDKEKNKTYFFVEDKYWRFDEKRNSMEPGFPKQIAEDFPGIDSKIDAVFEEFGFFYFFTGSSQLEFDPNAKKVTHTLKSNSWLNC

As a reminder, the pIC50 is −log10 of the IC50, conventionally taken in molar units. Low readings indicate a large IC50, high ones a small IC50. For the compound `COc1c(CO)ccc2oc(C(=O)Nc3ccc(-c4ccc(S(=O)(=O)N[C@H](C(=O)O)C(C)C)cc4)cc3)c(C)c12`, the pIC50 is 8.11 on Collagenase 3 and 5.85 in [1]. The Ratio in the assay filed under Homo sapiens turned out to be 180.

A word on the inhibition: it is the share of the control response that was lost under treatment. A lower inhibition goes with a weak effect. For `CCc1ccc2oc(C(=O)Nc3ccc(-c4ccc(S(=O)(=O)N[C@H](C(=O)O)C(C)C)cc4)cc3)c(C)c2c1O`, the pIC50 in assay [2] is 5.36; against Interstitial collagenase, 4.63; against Stromelysin-1, 6.31; against Matrilysin, 6.34; against Neutrophil collagenase, 7.03; in assay [5] it was 4.80. The inhibition was 42% in [3] and 55% in assay [4]. For the same compound, in the assay listed under Homo sapiens, the Ratio turned out to be 250.

For `COc1c(I)ccc2oc(C(=O)Nc3ccc(-c4ccc(S(=O)(=O)N[C@H](C(=O)O)C(C)C)cc4)cc3)c(C)c12`, the pIC50 in [2] is 4.82; at Interstitial collagenase it was 4.22; at Stromelysin-1, 5.97; against Matrilysin, 5.52; against Neutrophil collagenase, 6.39; in assay [5] it was 4.52. The inhibition in assay [3] is 38%; in assay [4] it was 51%. The Ratio in the assay listed under Homo sapiens amounted to 650.

`CC(C)[C@H](NS(=O)(=O)c1ccc(-c2ccc(NC(=O)c3oc4ccccc4c3-c3ccccc3)cc2)cc1)C(=O)O`: the pIC50 in [1] is 5.92. Further, the Ratio in the assay filed under Homo sapiens is 6.

For `COc1c(Br)ccc2oc(C(=O)Nc3ccc(-c4ccc(S(=O)(=O)N[C@@H](C(=O)O)C(C)C)cc4)cc3)c(C)c12`, the pIC50 against Collagenase 3 is 8.47; in assay [1] it was 6.16. In the assay filed under Homo sapiens, the Ratio was found to be 202.

On to `CC(C)[C@@H](NS(=O)(=O)c1ccc(-c2ccc(NC(=O)c3cc4ccccc4o3)cc2)cc1)C(=O)O`, for which, in assay [1], the pIC50 was 8.34.

With `COc1cccc2oc(C(=O)Nc3ccc(-c4ccc(S(=O)(=O)N[C@H](C(=O)O)C(C)C)cc4)cc3)c(C)c12`, in the assay listed under Homo sapiens, the Ratio turned out to be 110.

Consider `CC(=O)c1ccc2oc(C(=O)Nc3ccc(-c4ccc(S(=O)(=O)N[C@H](C(=O)O)C(C)C)cc4)cc3)c(C)c2c1O`, for which the Ratio in the assay filed under Homo sapiens came to 20.

On to `Cc1c(C(=O)Nc2ccc(-c3ccc(S(=O)(=O)N[C@H](C(=O)O)C(C)C)cc3)cc2)oc2ccc(Br)cc12`, for which the Ratio in the assay listed under Homo sapiens was determined as 27.

With `Cc1c(C(=O)Nc2ccc(-c3ccc(S(=O)(=O)N[C@H](C(=O)O)C(C)C)cc3)cc2)oc2ccc(Cl)c(OC(C)C)c12`, the pIC50 in assay [2] is 4.84; at Interstitial collagenase it was 4.43; against Stromelysin-1, 5.96; against Matrilysin it was 5.79; against Neutrophil collagenase it was 6.96; in assay [5], 4.30. Besides, the inhibition in assay [3] was 98%; in assay [4], 51%. The Ratio in the assay filed under Homo sapiens was 275.

Take `CCc1ccc2oc(C(=O)Nc3ccc(-c4ccc(S(=O)(=O)N[C@H](C(=O)O)C(C)C)cc4)cc3)c(C)c2c1OCc1ccccc1`: in the assay listed under Homo sapiens, the Ratio came to 65.

For `COc1c(Br)ccc2oc(C(=O)Nc3ccc(-c4ccc(S(=O)(=O)N[C@H](C(=O)O)C(C)C)cc4)cc3)cc12`, the values for the pIC50 (against Collagenase 3; in assay [1]) were 9.40 and 8.15, respectively. In addition, the Ratio in the assay filed under Homo sapiens turned out to be 18.

On to `COc1c(Cl)ccc2oc(C(=O)Nc3ccc(-c4ccc(S(=O)(=O)N[C@H](C(=O)O)C(C)C)cc4)cc3)c(C)c12`, for which, in the assay filed under Homo sapiens, the Ratio was 785.

For `COc1cccc2oc(C(=O)Nc3ccc(-c4ccc(S(=O)(=O)N[C@H](C(=O)O)C(C)C)cc4)cc3)cc12`, the Ratio in the assay filed under Homo sapiens came to 7.

Compound `CCc1c(C(=O)Nc2ccc(-c3ccc(S(=O)(=O)N[C@H](C(=O)O)C(C)C)cc3)cc2)oc2ccccc12` had a pIC50 against Collagenase 3 of 7.26. In addition, in the assay listed under Homo sapiens, the Ratio is 32.

Regarding `COc1c(Br)ccc2oc(C(=O)Nc3ccc(-c4ccc(S(=O)(=O)N[C@H](C(=O)O)C(C)C)cc4)cc3)c(C)c12`, the pIC50 in [2] was 5.25; in assay [6], 4.47; against Stromelysin-1, 6.84; against Matrilysin, 6.06; against Neutrophil collagenase it was 7.14; in assay [5], 4.82. Further, the inhibition in assay [4] was 66%. Moreover, the Ratio in the assay listed under Homo sapiens is 740.

`COc1c(C)ccc2oc(C(=O)Nc3ccc(-c4ccc(S(=O)(=O)N[C@H](C(=O)O)C(C)C)cc4)cc3)c(C)c12`: the pIC50 in [2] is 5.07; against Interstitial collagenase, 4.43; against Stromelysin-1, 6.35; against Matrilysin it was 6.27; against Neutrophil collagenase, 7.28; in assay [5] it was 4.82. Moreover, the inhibition in [3] stood at 39%; in [4], 76%. Also, the Ratio in the assay listed under Homo sapiens stood at 330.

For the compound `COc1c(C#N)ccc2oc(C(=O)Nc3ccc(-c4ccc(S(=O)(=O)N[C@H](C(=O)O)C(C)C)cc4)cc3)c(C)c12`, in the assay listed under Homo sapiens, the Ratio stood at 175.

Turning to `CC(C)[C@H](NS(=O)(=O)c1ccc(-c2ccc(NC(=O)c3cc4cc(Br)ccc4o3)cc2)cc1)C(=O)O`, the pIC50 on Collagenase 3 is 9.21. The Ratio in the assay listed under Homo sapiens was found to be 1.

Turning to `CCc1ccc2oc(C(=O)Nc3ccc(-c4ccc(S(=O)(=O)N[C@H](C(=O)O)C(C)C)cc4)cc3)c(C)c2c1OC`, the pIC50 in assay [2] is below 4.82; at Interstitial collagenase, 4.55; on Stromelysin-1 it was 6.25; against Matrilysin, 5.90; against Neutrophil collagenase, 7.00; in assay [5], 4.52. In addition, the inhibition in [3] is 43%; in assay [4], 64%. Besides, the Ratio in the assay filed under Homo sapiens came out at 660.

Take `CCc1ccc2oc(C(=O)Nc3ccc(-c4ccc(S(=O)(=O)N[C@H](C(=O)O)C(C)C)cc4)cc3)c(C)c2c1OC(C)C`: the Ratio in the assay listed under Homo sapiens worked out at 260.

In the case of `Cc1c(C(=O)Nc2ccc(-c3ccc(S(=O)(=O)N[C@@H](C(=O)O)C(C)C)cc3)cc2)oc2ccccc12`, the pIC50 at Collagenase 3 is 7.77; in assay [1] it was 6.79. Besides, the Ratio in the assay filed under Homo sapiens came out at 10.

For the compound `Cc1c(C(=O)Nc2ccc(-c3ccc(S(=O)(=O)N[C@H](C(=O)O)C(C)C)cc3)cc2)oc2ccccc12`, in the assay filed under Homo sapiens, the Ratio amounted to 44.

(Values after ChEMBL document CHEMBL1143494 (Bioorg Med Chem Lett, 2005).)
